Source: patent US6656971B2, “Trisubstituted carbocyclic cyclophilin binding compounds and their use” (Guilford Pharmaceuticals Inc., priority 2001, dated 2003)

Experiments:
Type in all cases: biochemical
human recombinant CyPA [1] = biological target: T1, human recombinant CyPA (Homo sapiens, UniProt P62937); assay: Rotamase (PPIase) inhibition, chymotrypsin-coupled cuvette assay, human recombinant CyPA; conditions: Table A, value without asterisk: human recombinant CyPA
Excerpt: A number of substrates for rotamase are known in the art or can be derived from those known. Typically, the substrate contacts a sample containing a protein with rotamase activity and the conversion of the substrate is detected after a period of time. The method for detecting conversion of the substrate will vary with the particular substrate chosen. One method has been termed the Ki test (See Harding, et al., Nature, 341:758-760 (1989); and Holt et al., J. Am. Chem. Soc., 115:9923-9938). The cis-trans isomerization of an alanine-proline bond in a model substrate, N-succinyl-Ala-Ala-Pro-Phe-p-nitroanilide (SEQ ID NO: 1), is monitored spectrophotometrically in a chymotrypsin-coupled assay. The action of chymotrypsin releases p-nitroaniline from only the trans form of the substrate. The amount of p-nitroaniline can be monitored in a spectrophotometer, for example. Other methods of detecting the presence of p-nitroaniline can also be used. The inhibition of this reaction caused by different concentrations of inhibitor is determined and the data are analyzed as a change in first-order rate constant as a function of inhibitor concentration, which yields the Ki value.
The following were added to a plastic cuvette: 950 μl of ice cold assay buffer (25 mM HEPES, pH 7.8, 100 mM NaCl), 10 μL of CyP A (2.5 μM in 10 mM Tris-Cl pH 7.5, 100 mM NaCl, 1 mM dithiothreitol), 25 μL of chymotrypsin (50 mg/ml in 1 mM HCl), and 10 μL of test compound, at various concentrations, in dimethyl sulfoxide. The reaction was initiated by the addition of 5 μL of substrate (succinyl-Ala-Phe-Pro-Phe-para-nitroanilide (SEQ ID NO: 1), 5 mg/mL in 470 mM LiCl in trifluoroethanol). The absorbance at 390 nm versus time was monitored for 90 seconds using a spectrophotometer and the rate constants were determined from the absorbance versus time data files.
The IC50 values which were obtained for representative compounds are given in the following Table A, and refer to the concentration that inhibits 50% of the rotamase activity in a sample.
The Cyclophilin utilized was a human recombinant CyPA, [Yoo et al., J. Mol. Biol., 269 (1997) 780-95].

human recombinant CyPA [2] = biological target: T1, human recombinant CyPA; assay: Semiautomated microtiter plate assay of rotamase activity inhibition, human recombinant CyPA; conditions: Table B, value without asterisk: human recombinant CyPA
Protocol: Rotamase inhibition was determined using a semiautomated microtiter plate assay modification of the above described assay [see Küllertz et al., Clin. Chem. 44, 502-508 (1998)]. All dilutions of CyPA, peptide substrate, and chymotrypsin were made in 35 mM ice-cold HEPES buffer. Fifty μL of CyPA solution is added to 50 μL of the peptide substrate solution (Phe-Pro-Phe p-nitroanilide, 0.16 mg/ml) in a glass microtiter well plate (the concentration of human recombinant CyP being adjusted so that the reaction rate is increased by a factor of 3 as compared to an uncatalyzed control reaction wherein the peptide substrate is degraded by chymotrypsin alone, in the absence of CyPA and test compound). Using a Beckman Multimek™ 96 automated 96-channel pipettor, 5 μL of test compound solution, or a DMSO blank, were added to each well for a 30 minute preincubation at 4° C. One hundred μL of chymotrypsin solution (1 mg/mL) were added to each well and the absorbance at 390 nm versus time was monitored for 9-10 minutes using a BioRad Ultramark plate reader maintained at 4° C. and the rate constants were determined from the absorbance versus time data files.
IC50 values which were obtained for representative compounds are presented in the following Table B. The cyclophilin utilized was a human recombinant CyPA. […] While CyP A was used in these examples, other CyP proteins can be substituted.

[3] = biological target: T2, recombinant rat CyPA-GST fusion protein (Rattus norvegicus, UniProt P10111); assay: Rotamase (PPIase) inhibition, chymotrypsin-coupled cuvette assay, rat CyPA-GST fusion protein; conditions: Table A, value with asterisk: recombinant rat CyPA-GST fusion protein
T2 construct: made in house; host or cells: E. coli BL21
T2 sequence (P10111 2-164): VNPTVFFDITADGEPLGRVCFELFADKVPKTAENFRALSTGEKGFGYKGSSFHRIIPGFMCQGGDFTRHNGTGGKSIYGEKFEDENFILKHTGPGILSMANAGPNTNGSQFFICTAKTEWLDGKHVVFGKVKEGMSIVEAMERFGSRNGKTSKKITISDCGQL

T1 sequence (P62937 whole entry): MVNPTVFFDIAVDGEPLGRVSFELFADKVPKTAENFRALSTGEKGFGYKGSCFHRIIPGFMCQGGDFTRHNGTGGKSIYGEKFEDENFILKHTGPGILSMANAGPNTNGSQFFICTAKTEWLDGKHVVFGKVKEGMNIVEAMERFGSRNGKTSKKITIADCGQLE

Row | IC50 (human recombinant CyPA [1]) [nM] | IC50 (human recombinant CyPA [2]) [nM] | IC50 [3] [nM] | Compound
1 | 456 | 1370 | – | S=C(Nc1cc(Cl)cc(Cl)c1)Nc1cc(NC(=S)Nc2cc(Cl)cc(Cl)c2)cc(Nc2ccccn2)c1 [Compound 13]
2 | – | 2800 | – | O=C(NCCc1ccc(Cl)c(Cl)c1)c1cc(COc2ccc(Cl)c(Cl)c2)cc(C(=O)NCCc2ccc(Cl)c(Cl)c2)c1 [Compound 19, 1-[(3,4-dichlorophenyl)oxymethy]-3,5-bis-{[2-(3,4-dichlorophenyl)ethyl]aminocarbonyl}benzene]
3 | 153 | 499 | – | O=C(Nc1cc(Cl)cc(Cl)c1)c1cc(COc2ccc(Cl)c(Cl)c2)cc(C(=O)Nc2cc(Cl)cc(Cl)c2)c1 [Compound 20, 1-[(3,4-dichlorophenyl)oxymethyl]-3,5-bis-[(3,5-dichlorophenyl)aminocarbonyl]benzene]
4 | – | – | 214 | O=C1c2ccccc2C(=O)N1Cc1cc(NC(=S)Nc2cc(Cl)cc(Cl)c2)cc(NC(=S)Nc2cc(Cl)cc(Cl)c2)c1 [Compound 27, 2-{[3,5-bis({[(3,5-dichlorophenyl)amino]thioxomethyl}amino)phenyl]methyl}iso-indoline-1,3-dione]
5 | – | – | 914 | COc1ccc(NC(=O)Nc2cc(Cl)cc(Cl)c2)cc1OCc1cc(Cl)cc(Cl)c1 [Compound 28, 1-(3,5-Dichlorophenyl)-3-[3-(3,5-dichlorobenzyloxy)-4-methoxyphenyl]urea]
6 | – | – | 10000 | O=C(Nc1cc(Cl)cc(Cl)c1)Nc1ccc(Br)c(N(S(=O)(=O)c2cc(Cl)cc(Cl)c2)S(=O)(=O)c2cc(Cl)cc(Cl)c2)c1 [Compound 29, N-(3-{bis[(3,5-dichlorophenyl)sulfonyl]amino}-4-bromophenyl)[(3,5-dichlorophenyl)amino]formamide]
7 | – | 10000 | – | O=S(=O)(c1cc(Cl)cc(Cl)c1)N(c1ccc(Br)c(N(S(=O)(=O)c2cc(Cl)cc(Cl)c2)S(=O)(=O)c2cc(Cl)cc(Cl)c2)c1)S(=O)(=O)c1cc(Cl)cc(Cl)c1 [Compound 30, bis[(3,5-dichlorophenyl)sulfonyl](3-{bis[(3,5-dichlorophenyl)sulfonyl]amino)-4-bromophenyl)amine]
8 | – | – | 707 | S=C(Nc1cc(Cl)cc(Cl)c1)Nc1cc(OCc2cccc3ccccc23)ccc1Br [Compound 33, [(3,5-Dichlorophenyl)amino]{[2-bromo-5-(naphthylmethoxy)phenyl]amino}methane-1-thione]
9 | – | – | 609 | S=C(Nc1cc(Cl)cc(Cl)c1)Nc1ccc(Nc2ccc(Cl)cc2)c(NC(=S)Nc2cc(Cl)cc(Cl)c2)c1 [Compound 36, [(3,5-dichlorophenyl)amino]{[3-({[(3,5-dichlorophenyl)amino]thioxo-methyl}amino)-4-[(4-chlorophenyl)amino]phenyl]amino}methane-1-thione]
10 | 736 | – | – | O=C(Nc1ccc(Cl)c(Cl)c1)c1cccc(COc2cc(C(=O)Nc3ccc(Cl)c(Cl)c3)cc(C(=O)Nc3ccc(Cl)c(Cl)c3)c2)c1 [Compound 38, 3-{[(3,4-dichlorophenyl)aminocarbonyl]benzyloxy}-1,5-bis-[(3,4-dichloro-phenyl)aminocarbonyl]benzene]
11 | – | 719 | – | S=C(Nc1cc(Cl)cc(Cl)c1)Nc1ccc(Nc2ccc(Oc3ccccc3)cc2)c(NC(=S)Nc2cc(Cl)cc(Cl)c2)c1 [Compound 40, [(3,5-dichlorophenyl)amino]{[3-({[(3,5-dichlorophenyl)amino]thioxomethyl}amino)-4-[(4-phenoxyphenyl)amino]phenyl]amino}methane-1-thione]
12 | – | – | 609 | COc1ccc(NC(=S)Nc2cc(Cl)cc(Cl)c2)cc1COc1cc(Cl)cc(Cl)c1 [Compound 45, 1-[3-(3,5-Dichlorophenoxy)methyl-4-methoxyphenyl]-3-(3,5-dichlorophenyl)thiourea]
13 | – | – | 1550 | O=C(Nc1ccc(Cl)c(C(=O)c2ccccc2)c1)c1cc(Cl)cc(Cl)c1 [Compound 51, (3,5-Dichlorophenyl)-N-[4-chloro-3-(phenylcarbonyl)phenyl]formamide]
14 | – | – | 861 | O=C(Nc1cc(S(=O)(=O)NC(c2ccccc2)c2ccccc2)ccc1Cl)c1cc(Cl)cc(Cl)c1 [Compound 52, (3,5-Dichlorophenyl)-N-(5-{[(diphenylmethyl)amino]sulfonyl}-2-chlorophenyl)formamide]

The remaining lines, values behind:

Row | Compound | IC50 (human recombinant CyPA [1]) [nM] | IC50 (human recombinant CyPA [2]) [nM] | IC50 [3] [nM]
15 | O=C(NNC(=O)c1cc(O)cc(NC(=O)c2cccc(C(F)(F)F)c2)c1)c1ccccc1 [Compound 15, 1-Benzoyl-2-{3-[(3-trifluoromethyl)phenyl]carbonylamino-5-hydroxy}benzoylhydrazine] | 18700 | 9100 | –
16 | N#Cc1cccc(NC(=O)c2cc(OCc3ccc(-c4ccccc4C#N)cc3)cc(C(=O)Nc3cccc(C#N)c3)c2)c1 [Compound 22, 1-[4-(2-cyanophenyl)benzyl]loxy-3,5-bis-[(3-cyanophenyl)aminocarbonyl]benzene] | – | 4710 | –
17 | O=C(Nc1ccc(Cl)c(C(F)(F)F)c1)c1cccc(COc2cc(C(=O)Nc3ccc(Cl)c(C(F)(F)F)c3)cc(C(=O)Nc3ccc(Cl)c(C(F)(F)F)c3)c2)c1 [Compound 37, 3-{[(3-Trifluoromethyl-4-chlorophenyl)aminocarbonyl]benzyloxy}-1,5-bis-[(3-trifluoromethyl-4-chlorophenyl)aminocarbonyl]benzene] | 1200 | – | –
18 | O=C(Nc1cccc([N+](=O)[O-])c1)c1ccc(Br)c(C(=O)Nc2cccc([N+](=O)[O-])c2)c1 [Compound 41, {2-bromo-5-[N-(3-nitrophenyl)carbamoyl]phenyl}-N-(3-nitrophenyl) formamide] | 1370 | – | –
19 | COc1ccc(NC(=S)NC(=O)c2ccccc2)cc1COc1cc(Cl)cc(Cl)c1 [Compound 46, 1-[3-(3,5-Dichlorophenoxy)methyl-4-methoxyphenyl]-3-benzoylthiourea] | – | – | 3770
20 | COc1ccc(NC(=O)c2cccc3ccccc23)cc1OCc1cccc2ccccc12 [Compound 47, N-[4-methoxy-3-(naphthylmethoxy)phenyl]naphthylformamide] | – | – | 1220
21 | COc1ccc(NC(=O)Cc2cccc3ccccc23)cc1OCc1cccc2ccccc12 [Compound 48, N-[4-methoxy-3-(naphthylmethoxy)phenyl]-2-naphthylethanamide] | – | – | 1190
22 | COc1ccc(NC(=O)C(c2ccccc2)c2ccccc2)cc1OCc1cccc2ccccc12 [Compound 49, N-[4-methoxy-3-(naphthylmethoxy)phenyl]-2,2-diphenylethanamide] | – | – | 1020
23 | COc1ccc(NS(=O)(=O)c2cccc3ccccc23)cc1OCCc1cccc2ccccc12 [Compound 50] | – | – | 978
24 | O=C(CCCCc1ccccc1)Nc1cc(Br)cc(C(=O)NNC(=S)Nc2ccc(Cl)c(Cl)c2)c1 [Compound 53, 1-{3-[(5-Phenyl)valeroylamino]-5-bromobenzoyl}-4-(3,4-dichlorophenyl) thiosemicarbazide] | – | 392 | –
25 | (3,5-dichlorophenyl)-N-[5-({[(3,5-dichlorophenyl)amino]thioxomethyl}amino)-3-{[3-(trifluoromethyl)phenyl]amino }phenyl]formamide [Compound 10] | – | 933 | –
26 | (5-(2-(2-5,6,7,8-tetrahydronaphthyl)ethyl)-3-{N-[3-(trifluoromethyl)phenyl]carbamoyl}phenyl)-N-[3-(trifluoromethyl)phenyl]formamide [Compound 23] | – | 7850 | –
27 | (5-(2-(2-naphthyl)ethyl)-3-{N-[3-(trifluoromethyl)phenyl]carbamoyl}phenyl)-N-[3-(trifluoromethyl)phenyl]formamide [Compound 24] | – | 7170 | –
28 | [(3,5-dichlorophenyl)amino]{[3-({[(3,5-dichlorophenyl) amino]thioxo-methyl}amino)-4-(3,5-dimethylpyrazolyl)phenyl]amino}methane-1-thione [Compound 39] | – | 1120 | –
